# Assay results published in patent US11076595B2, “1-(n,n-disubstituted carbamoyl) 4-(substituted sulfonyl)triazolin-5-one derivative, 4-(n,n-disubstituted carbamoyl) 1-(substituted sulfonyl)triazolin-5-one derivative, and herbicide containing said derivative as active ingredient” (HOKKO CHEMICAL INDUSTRY CO., LTD., priority 2017, dated 2021).
# Columns and labels:
# Format in all cases: in vivo
# Lindernia pyxidaria [1] = assay: Test Example 11: herbicidal effect test by soil treatment in paddy field; details: 120 g/10a active ingredient, 14 days after treatment
# Description: (§1) A Wagner pot having an area of 1/10000 are was filled with paddy field soil and after adding water, a chemical fertilizer (N:P:K=17:17:17) was mixed, followed by puddling. Thereafter, 30 grains of each of Echinochloa crus-galli, broad-leaved weed (Lindernia pyxidaria, Monochoria vaginalis) and Scirpus juncoides seeds were sown to a depth of 0 to 1 cm. Immediately after the sowing, the pot was flooded, and the depth of water was kept at about 3 cm. The pot was subsequently managed in a glass greenhouse. Just after that, an emulsifiable concentrate prepared according to Formulation Example 15 by using the compound shown in Table 9 below was diluted with water, and a predetermined amount of the water-diluted formulation was added dropwise. The application rate of the active ingredient, by conversion, corresponded to 120 g per 10 are.
# (§2) This test was performed with two replications per one formulation concentration plot, and 14 days after the formulation treatments, the weed suppression rate (%) was determined according to the following equation (Math. 2). Weed suppression rate (%)=(1−average dry weight (g) of plants in treated plots/average dry weight (g) of plants in untreated plots)×100 [Math. 2]
# Echinochloa crus-galli [2] = assay: as above; details: 120 g/10a active ingredient, 14 days after treatment
# Description: as §1, §2
# Scirpus juncoides [3] = assay: as above; details: 120 g/10a active ingredient, 14 days after treatment
# Description: as §1, §2
# Monochoria vaginalis [4] = assay: as above; details: 120 g/10a active ingredient, 14 days after treatment
# Description: as §1, §2
# Lindernia pyxidaria [5] = assay: Test Example 12: herbicidal effect test by treatment during growing period in paddy field; details: 120 g/10a; treatment seven days after sowing in flooded paddy pot; assessed 14 days after treatment
# Description: as §2
# as §1, with “Seven Days” for “Just”, “sowing,” for “that,”, “10” for “9”, “are. The test was performed with two replications per one formulation concentration plot, and 14 days after the formulation treatments, the weed suppression rate (%) was determined according to the equation (Math. 2).” for “are.”
# Echinochloa crus-galli [6] = assay: as above; details: 120 g/10a; treatment seven days after sowing in flooded paddy pot; assessed 14 days after treatment
# Description: as §2
# as §1, with “Seven Days” for “Just”, “sowing,” for “that,”, “10” for “9”, “are. The test was performed with two replications per one formulation concentration plot, and 14 days after the formulation treatments, the weed suppression rate (%) was determined according to the equation (Math. 2).” for “are.”
# Scirpus juncoides [7] = assay: as above; details: 120 g/10a; treatment seven days after sowing in flooded paddy pot; assessed 14 days after treatment
# Description: as §2
# as §1, with “Seven Days” for “Just”, “sowing,” for “that,”, “10” for “9”, “are. The test was performed with two replications per one formulation concentration plot, and 14 days after the formulation treatments, the weed suppression rate (%) was determined according to the equation (Math. 2).” for “are.”
# Monochoria vaginalis [8] = assay: as above; details: 120 g/10a; treatment seven days after sowing in flooded paddy pot; assessed 14 days after treatment
# Description: as §2
# as §1, with “Seven Days” for “Just”, “sowing,” for “that,”, “10” for “9”, “are. The test was performed with two replications per one formulation concentration plot, and 14 days after the formulation treatments, the weed suppression rate (%) was determined according to the equation (Math. 2).” for “are.”
SMILES,Weed suppression rate (%) Lindemia pyxidaria (Lindernia pyxidaria [1]) [%],Weed suppression rate (%) Echinochloa crus-galli (Echinochloa crus-galli [2]) [%],Weed suppression rate (%) Scirpus juncoides (Scirpus juncoides [3]) [%],Weed suppression rate (%) Monochoria vaginalis (Monochoria vaginalis [4]) [%],Weed suppression rate (%) Lindemia pyxidaria (Lindernia pyxidaria [5]) [%],Weed suppression rate (%) Echinochloa crus-galli (Echinochloa crus-galli [6]) [%],Weed suppression rate (%) Scirpus juncoides (Scirpus juncoides [7]) [%],Weed suppression rate (%) Monochoria vaginalis (Monochoria vaginalis [8]) [%]
CC(C)N(C(=O)n1cnn(S(=O)(=O)c2ccccc2Cl)c1=O)c1ccc(F)c(F)c1F [Compound 11-515],90,100,100,80,70,100,100,100
CC(C)N(C(=O)n1cnn(S(=O)(=O)C2CC2)c1=O)c1ccc(C(F)(F)F)cc1Cl [Compound 11-220],90,100,90,60,90,90,80,90
CC(C)N(C(=O)n1cnn(S(=O)(=O)C2CCCCC2)c1=O)c1ccc(Br)cc1Cl [Compound 11-305],100,100,90,100,90,100,100,100
CC(C)N(C(=O)n1cnn(S(=O)(=O)c2c(F)cccc2F)c1=O)c1cccc(F)c1F [Compound 11-772],90,100,80,80,70,100,90,90
CC(C)N(C(=O)n1cnn(S(=O)(=O)c2ccc(Cl)cc2)c1=O)c1c(F)cc(F)cc1F [Compound 11-592],100,100,80,90,80,100,80,100
Cc1ccc(N(C(=O)n2cnn(S(=O)(=O)c3ccccc3F)c2=O)C(C)C)c(F)c1 [Compound 11-416],80,90,90,80,80,90,90,80
CN(C(=O)n1cnn(S(=O)(=O)C2CC2)c1=O)c1ccc(F)cc1F [Compound 11-140],70,90,80,70,70,100,100,70
Cc1cc(C)c(S(=O)(=O)n2ncn(C(=O)N(c3c(F)c(F)cc(F)c3F)C(C)C)c2=O)c(C)c1 [Compound 11-868],100,100,100,70,90,90,60,80
CC(C)N(C(=O)n1cnn(S(=O)(=O)N(C)C)c1=O)c1ccccc1F [Compound 11-1054],80,90,90,80,80,90,90,80
Cc1ccc(S(=O)(=O)n2ncn(C(=O)N(c3ccccc3F)C(C)C)c2=O)cc1 [Compound 11-627],80,90,90,80,80,90,90,80
Cc1ccc(N(C(=O)n2cnn(S(=O)(=O)c3cccs3)c2=O)C(C)C)c(F)c1 [Compound 11-1036],90,90,90,90,80,90,90,80
Cc1ccc(S(=O)(=O)n2ncn(C(=O)N(c3ccc(F)c(F)c3F)C(C)C)c2=O)cc1 [Compound 11-640],100,100,90,70,70,80,90,100
Cc1cc(C)c(S(=O)(=O)n2ncn(C(=O)N(c3ccc(Cl)cn3)C(C)C)c2=O)c(C)c1 [Compound 11-889],100,100,90,80,70,100,90,80
CC(C)N(C(=O)n1cnn(S(=O)(=O)N(C)C)c1=O)c1ccc(Cl)cc1Br [Compound 11-1076],60,90,60,60,60,90,60,30
Cc1ccc(N(C(=O)n2cnn(S(=O)(=O)c3cccc(C(F)(F)F)c3)c2=O)C(C)C)c(F)c1 [Compound 11-737],80,90,90,80,80,90,90,80
CC(C)N(C(=O)n1cnn(S(=O)(=O)c2cccs2)c1=O)c1ccc(Cl)cc1Br [Compound 11-1034],90,100,100,70,70,90,70,70
CC(C)N(C(=O)n1cnn(S(=O)(=O)c2ccccc2F)c1=O)c1ccccc1F [Compound 11-392],80,90,90,80,80,90,90,80
CC(C)N(C(=O)n1cnn(S(=O)(=O)c2cccc(Cl)c2)c1=O)c1ccc(F)c(F)c1F [Compound 11-553],90,100,30,70,70,100,30,60
